Data: patent US10323001B2, “Compositions for modulating a kinase cascade and methods of use thereof” (Athenex, Inc., priority 2006, dated 2019)

Assays:
Src protein substrates [1] = assay: Src substrate phosphorylation in human colon cancer cells (HT29); assay type: cell-based
Excerpt: (§1) Compounds of the invention or salts thereof may be Src signaling inhibitors that bind in the Src peptide substrate site. The activity of various compounds of the invention and salts has been studied in c-Src ([…], constitutively active and transforming) transformed NIH3T3 cells and in human colon cancer cells (HT29).

[2] = Moisture-sorption analysis (Hiden IGAsorp); assay type: physicochemical; conditions: 90% RH, 25° C.; listed as Free base
Procedure: Moisture-sorption experiments were performed using a Hiden IGAsorp Moisture Sorption instrument on KX2-391.MSA obtained in accordance with the process of the present invention (Example 4). First, the sample was dried at 0% Relative Humidity (RH) and 25° C. until an equilibrium weight was reached or for a maximum of four hours. The sample was then subjected to an isothermal (25° C.) adsorption scan from 10 to 90% RH in steps of 10%. The sample was allowed to equilibrate to an asymptotic weight at each point for a maximum of four hours. Following adsorption, a desorption scan from 85 to 0% RH (at 25° C.) was run in steps of −10% again allowing a maximum of four hours for equilibration to an asymptotic weight. The sample was then dried for one hour at 80° C. and the resulting solid analyzed by XRPD. […] FIG. 10 depicts percent change of water content as a function of relative humidity for KX2-391.MSA, Form A.
Moisture-sorption experiments were performed using a Hiden IGAsorp Moisture Sorption Instrument on KX2-391.2HCl obtained in accordance with the process of the present invention (Example 3). First, the sample was dried at 0% Relative Humidity (RH) and 25° C. until an equilibrium weight was reached or for a maximum of four hours. The sample was then subjected to an isothermal (25° C.) adsorption scan from 10 to 90% RH in steps of 10%. The sample was allowed to equilibrate to an asymptotic weight at each point for a maximum of four hours. Following adsorption, a desorption scan from 85 to 0% RH (at 25° C.) was run in steps of −10% again allowing a maximum of four hours for equilibration to an asymptotic weight. The sample was then dried for one hour at 80° C. and the resulting solid analyzed by XRPD.

Src protein substrates [3] = assay: Src substrate phosphorylation in c-Src transformed NIH3T3 cells; assay type: cell-based; conditions: c-Src (527F, constitutively active and transforming) transformed NIH3T3 cells
Excerpt: as §1

- Moisture Sorption Wt % Water @ 90% RH [2]: 3.7 wt %
Compound: O=C(Cc1ccc(-c2ccc(OCCN3CCOCC3)cc2)cn1)NCc1ccccc1 [KX2-391, 2-(5-(4-(2-morpholinoethoxy)phenyl)pyridin-2-yl)-N-benzylacetamide]
- phosphorylation level of known Src protein substrates (Src protein substrates [1]): reduce the phosphorylation level of known Src protein substrates in a dose-dependent fashion
- phosphorylation level of known Src protein substrates (Src protein substrates [3]): reduce the phosphorylation level of known Src protein substrates in a dose-dependent fashion
